These results are taken from paper PMC4610730 (Journal of medicinal chemistry, 2015).

A short description of data set [1]: LC-MS analysis of aged DMSO stocks. The data set is classed as physicochemical. Conditions: DMSO stock, LC-MS on day 38; for Decomposition product observed: bis-enone (equivalent to 8) / Decomposition product observed: carboxylic acid (equivalent to 6) / Decomposition product observed: lactam (equivalent to 5): Table 2; for Decomposition product observed: carboxylic acid (analogous to 6) / Decomposition product observed: enone (analogous to 8) / Decomposition product observed: lactam (analogous to 5): Table 1.

In the next data set the target is APOBEC3G (A3G) (Homo sapiens, UniProt Q9HC16). As to the kind of experiment: Fluorescence-based ssDNA C-to-U DNA deaminase assay, A3G. It counts as biochemical. Conditions: for A3G inhibitory activity: substructures of the decomposition products, data not shown.
Sequence of APOBEC3G (A3G) (Q9HC16 whole entry): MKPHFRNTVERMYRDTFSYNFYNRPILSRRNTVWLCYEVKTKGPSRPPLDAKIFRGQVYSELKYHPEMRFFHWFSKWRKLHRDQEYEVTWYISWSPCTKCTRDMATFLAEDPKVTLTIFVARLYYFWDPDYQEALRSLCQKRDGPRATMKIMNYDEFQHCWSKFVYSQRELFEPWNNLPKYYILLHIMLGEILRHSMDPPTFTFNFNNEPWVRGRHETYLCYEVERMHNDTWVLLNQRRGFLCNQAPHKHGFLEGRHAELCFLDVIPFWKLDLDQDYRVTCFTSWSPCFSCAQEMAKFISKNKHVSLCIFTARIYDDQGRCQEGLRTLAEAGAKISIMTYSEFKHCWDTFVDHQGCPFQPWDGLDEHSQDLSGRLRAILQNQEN
Data set [2] is described as follows: Aging of 1 under photochemical conditions. The data set is classed as physicochemical. Conditions: 10 mM DMSO, visible light 300 W, N2 atmosphere (balloon, 1 atm), 9 h, no sensitizer.
A short description of data set [3]: Aging of DMSO stocks of 1 under varied conditions. It counts as physicochemical.
A further data set concerns the target APOBEC3A (A3A) (Homo sapiens, UniProt P31941). As to the kind of experiment: Fluorescence-based ssDNA C-to-U DNA deaminase assay, A3A. The data set is classed as biochemical.
Data set [4] can be described thus: Storage stability of isolated decomposition products. To be noted: significant periods of time. It counts as physicochemical.
The mark [5] stands for this setting: freshly synthesized and solubilized, day 0, dose response up to 200 μM.

Structures are written as SMILES.

Sequence of APOBEC3A (A3A) (P31941 whole entry): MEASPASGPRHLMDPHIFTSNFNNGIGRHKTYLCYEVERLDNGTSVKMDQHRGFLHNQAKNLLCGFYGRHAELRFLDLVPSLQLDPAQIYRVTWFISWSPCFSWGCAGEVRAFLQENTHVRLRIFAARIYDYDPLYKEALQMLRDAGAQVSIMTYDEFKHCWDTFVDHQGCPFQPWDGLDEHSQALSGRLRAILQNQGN

As for `Cc1ccc(-c2cc(C(=O)NC(C)C3CCCO3)c3ccccc3n2)o1` (stereo not drawn) [compound 25], in data set [1], the “Decomposition product observed: bis-enone (equivalent to 8)” value is on record as “+ 367.2 (367.2)”, the “Decomposition product observed: carboxylic acid (equivalent to 6)” value is listed as “+ 315.1 (315.1)” and the “Decomposition product observed: lactam (equivalent to 5)” value is “+ 287.1 (287.1)”.
In the case of `Cc1ccc(-c2cc(C(=O)Nc3nnc(-c4ccncc4)s3)c3ccccc3c2)o1` [compound 19], in data set [1], the “Decomposition product observed: carboxylic acid (analogous to 6)” value is reported as “+ 377.2 (377.1)”, the “Decomposition product observed: enone (analogous to 8)” value was “+ 429.2 (429.1)” and the “Decomposition product observed: lactam (analogous to 5)” value is reported as “-”.
Consider `Cc1cccc(NC(=O)c2cc(-c3ccc(C)o3)nc3ccccc23)n1` [compound 26], for which, in data set [1], the “Decomposition product observed: bis-enone (equivalent to 8)” value is “+ 360.2 (360.1)”, the “Decomposition product observed: carboxylic acid (equivalent to 6)” value is reported as “+ 308.1 (308.1)” and the “Decomposition product observed: lactam (equivalent to 5)” value was “+ 280.1 (280.1)”.
For the compound `O=C(O)c1cc(-c2ccco2)cc2ccccc12` [compound 22], in data set [1], the “Decomposition product observed: carboxylic acid (analogous to 6)” value was “-”, the “Decomposition product observed: enone (analogous to 8)” value is “+ 254.1 (254.1)” and the “Decomposition product observed: lactam (analogous to 5)” value is recorded as “-”.
With `COc1ccc(CCNC(=O)c2cc(-c3ccc(C)o3)nc3ccccc23)cc1` [compound 28], in data set [1], the “Decomposition product observed: bis-enone (equivalent to 8)” value is on record as “+ 403.2 (403.2)”, the “Decomposition product observed: carboxylic acid (equivalent to 6)” value is reported as “+ 351.2 (351.1)” and the “Decomposition product observed: lactam (equivalent to 5)” value is “+ 323.1 (323.1)”.
On to `Nc1nnc(-c2ccncc2)s1` [compound 4, 5-(pyridin-4-yl)-1,3,4-thiadiazol-2-amine], for which, on APOBEC3G (A3G), the A3G inhibitory activity result was “inactive”.
Turning to `O=C(Nc1nnc(-c2ccncc2)s1)c1cc(-c2ccco2)nc2ccccc12` [compound 13], in data set [1], the “Decomposition product observed: carboxylic acid (analogous to 6)” value is “+ 378.2 (378.1)”, the “Decomposition product observed: enone (analogous to 8)” value was “-” and the “Decomposition product observed: lactam (analogous to 5)” value is recorded as “+ 350.2 (350.1)”.
For `O=C(NNC(=O)c1cc(-c2ccco2)nc2ccccc12)NC1CCCCC1` [compound 30], in data set [1], the “Decomposition product observed: bis-enone (equivalent to 8)” value was “-”, the “Decomposition product observed: carboxylic acid (equivalent to 6)” value is “+ 357.1 (357.1)” and the “Decomposition product observed: lactam (equivalent to 5)” value is listed as “+ 329.1 (329.1)”.
Regarding `Cc1ccc(-c2cc(C(=O)Nc3nnc(-c4ccncc4)s3)c3ccccc3n2)o1` [compound 1, 2-(5-Methylfuran-2-yl)-N-(5-(pyridin-4-yl)-1,3,4-thiadiazol-2-yl)quinoline-4-carboxamide], the A3G inhibition entry on APOBEC3G (A3G) (setting [5]) was “no inhibition”. In addition, in data set [1], the “Decomposition product observed: carboxylic acid (analogous to 6)” value is “+ 378.1 (378.1)”, the “Decomposition product observed: enone (analogous to 8)” value was “+ 430.1 (430.1)”, the “Decomposition product observed: lactam (analogous to 5)” value was “+ 350.1 (350.1)” and the “Decomposition product observed: bis-enone (equivalent to 8)” value is “+ 430.1 (430.1)”. Moreover, in data set [1], the “Decomposition product observed: carboxylic acid (equivalent to 6)” value is given as “+ 378.1 (378.1)” and the “Decomposition product observed: lactam (equivalent to 5)” value is recorded as “+ 350.1 (350.1)”. In addition, in data set [2], the decomposition under irradiation result is reported as “virtually no decomposition”. Besides, in data set [3] (10 mM DMSO stock aged in the dark), the “decomposition of DMSO stock” value is reported as “no decomposition”. In addition, the “decomposition of DMSO stock” value in data set [3] (10 mM DMSO stock aged in the presence of NaN3) is listed as “no decomposition”. Besides, the “decomposition of DMSO stock” value in data set [3] (10 mM DMSO stock aged under inert conditions (N2)) is given as “drastically reduced decomposition”. In addition, the “rate of decomposition versus storage temperature” value in data set [3] (DMSO stock stored at -20 °C vs. rt vs. 37 °C, data not shown) is “same rate regardless of the temperature”. In addition, the “inhibitory activity against A3A” value against APOBEC3A (A3A) (aged DMSO stock of synthesized compound) is “never recovered”. The A3A inhibition result at APOBEC3A (A3A) (setting [5]) is on record as “no inhibition”.
Consider `O=C(O)c1cc(O)nc2ccccc12` [2-Hydroxyquinonline-4-carboxylic acid], for which the A3G inhibitory activity result at APOBEC3G (A3G) is “inactive”.
Take `O=C(Nc1nnc(-c2ccncc2)s1)c1cc(-c2ccco2)cc2ccccc12` [compound 21]: in data set [1], the “Decomposition product observed: carboxylic acid (analogous to 6)” value is on record as “+ 377.2 (377.1)”, the “Decomposition product observed: enone (analogous to 8)” value is given as “+ 415.1 (415.1)” and the “Decomposition product observed: lactam (analogous to 5)” value is “-”.
`O=C(O)c1cc(-c2ccco2)nc2ccccc12` [compound 14]: in data set [1], the “Decomposition product observed: carboxylic acid (analogous to 6)” value is “-”, the “Decomposition product observed: enone (analogous to 8)” value was “-” and the “Decomposition product observed: lactam (analogous to 5)” value is listed as “+ 190.2 (190.1)”.
With `Cc1ccc(-c2cc(C(=O)O)c3ccccc3c2)o1` [compound 20], in data set [1], the “Decomposition product observed: carboxylic acid (analogous to 6)” value is “-”, the “Decomposition product observed: enone (analogous to 8)” value is “+ 269.2 (269.1)” and the “Decomposition product observed: lactam (analogous to 5)” value is “-”.
Take `Cc1ccc(-c2cc(C(=O)NC3CCCCC3)c3ccccc3n2)o1` [compound 27]: in data set [1], the “Decomposition product observed: bis-enone (equivalent to 8)” value is “+ 351.2 (351.2)”, the “Decomposition product observed: carboxylic acid (equivalent to 6)” value is recorded as “+ 299.1 (299.1)” and the “Decomposition product observed: lactam (equivalent to 5)” value is “+ 271.1 (271.1)”.
Turning to `CC(=O)/C=C\C(=O)c1cc(C(=O)Nc2nnc(-c3ccncc3)s2)c2ccccc2n1` [compound 8, (Z)-2-(4-oxopent-2-enoyl)-N-(5-(pyridin-4-yl)-1,3,4-thiadiazol-2-yl)quinoline-4-carboxamide], the “stability for storage in organic solvents” value in data set [4] is “not stable”.
On to `Cc1ccc(-c2cc(C(=O)NCc3ccc4c(c3)OCO4)c3ccccc3n2)o1` [compound 29], for which, in data set [1], the “Decomposition product observed: bis-enone (equivalent to 8)” value is “+ 403.1 (403.1)”, the “Decomposition product observed: carboxylic acid (equivalent to 6)” value is reported as “+ 351.2 (351.1)” and the “Decomposition product observed: lactam (equivalent to 5)” value is listed as “+ 323.1 (323.1)”.
Turning to `Cc1ccc(-c2cc(C(=O)Nc3nnc(-c4ccncc4)s3)ccn2)o1` [compound 15], in data set [1], the “Decomposition product observed: carboxylic acid (analogous to 6)” value is “+ 328.2 (328.0)”, the “Decomposition product observed: enone (analogous to 8)” value is reported as “+ 380.2 (380.1)” and the “Decomposition product observed: lactam (analogous to 5)” value was “-”.
For `O=C(O)c1ccnc(-c2ccco2)c1` [compound 18] the same measures were “-”, “-” and “-”.
For `O=C(O)c1cc(C(=O)O)c2ccccc2n1` [quinoline-2,4-carboxylic acid], at APOBEC3G (A3G), the A3G inhibitory activity result is “inactive”.
In the case of `c1coc(-c2ccc3ccccc3n2)c1` [compound 24], in data set [1], the “Decomposition product observed: carboxylic acid (analogous to 6)” value was “-”, the “Decomposition product observed: enone (analogous to 8)” value is reported as “-” and the “Decomposition product observed: lactam (analogous to 5)” value was “-”.
Take `Cc1ccc(-c2cc(C(=O)O)c3ccccc3n2)o1` [compound 12, 2-(5-Methylfuran-2-yl)quinoline-4-carboxylic acid]: in data set [1], the “Decomposition product observed: carboxylic acid (analogous to 6)” value is “+ 218.1 (218.1)”, the “Decomposition product observed: enone (analogous to 8)” value is “+ 270.1 (270.1)” and the “Decomposition product observed: lactam (analogous to 5)” value is “+ 190.1 (190.1)”.
For `Cc1ccc(-c2cc(C(=O)N3CCN(S(C)(=O)=O)CC3)c3ccccc3n2)o1` [compound 31], in data set [1], the “Decomposition product observed: bis-enone (equivalent to 8)” value was “+ 416.1 (416.1)”, the “Decomposition product observed: carboxylic acid (equivalent to 6)” value was “+ 364.1 (364.1)” and the “Decomposition product observed: lactam (equivalent to 5)” value is given as “+ 336.1 (336.1)”.
For the compound `O=C(Nc1nnc(-c2ccncc2)s1)c1ccnc(-c2ccco2)c1` [compound 17], in data set [1], the “Decomposition product observed: carboxylic acid (analogous to 6)” value is “-”, the “Decomposition product observed: enone (analogous to 8)” value is “-” and the “Decomposition product observed: lactam (analogous to 5)” value was “-”.
As for `Cc1ccc(-c2cc(C(=O)O)ccn2)o1` [compound 16], in data set [1], the “Decomposition product observed: carboxylic acid (analogous to 6)” value is listed as “-”, the “Decomposition product observed: enone (analogous to 8)” value was “+ 220.1 (220.1)” and the “Decomposition product observed: lactam (analogous to 5)” value is “-”.
For `COC(=O)c1cc(NC(=O)c2cc(-c3ccc(C)o3)nc3ccccc23)cc(C(=O)OC)c1` [compound 32], in data set [1], the “Decomposition product observed: bis-enone (equivalent to 8)” value is listed as “+ 461.1 (461.1)”, the “Decomposition product observed: carboxylic acid (equivalent to 6)” value is given as “+ 409.1 (409.1)” and the “Decomposition product observed: lactam (equivalent to 5)” value is listed as “+ 381.1 (381.1)”.
In the case of `Cc1ccc(-c2ccc3ccccc3n2)o1` [compound 23], in data set [1], the “Decomposition product observed: carboxylic acid (analogous to 6)” value is reported as “-”, the “Decomposition product observed: enone (analogous to 8)” value is recorded as “+ 226.2 (226.2)” and the “Decomposition product observed: lactam (analogous to 5)” value is recorded as “-”.
